Test results: patent publication US8252748B2, “Peptide derived from neurotensin receptor 3 and use thereof in the treatment of psychiatric diseases” (Centre National de la Recherche Scientifique—CNRS, priority 2007, dated 2012)

Experiments:
mouse (C57Black/J) = test: Conditioned motility suppression test (CMST); format: in vivo; details: fluoxetine 3 mg/kg; 30 min after injection
Excerpt: The inventors conducted three types of behavioral experiments that are regarded as classical for determining the antidepressant activity of a substance (Nestler E. J., Gould E., Manji H., Buncan M., Duman R. S., Greshenfeld H. K., Hen, R. et al. “Preclinical models: status of basic research in depression” Biol Psychiatry. 15, 503-528 (2002) (20) and Cryan, J. & Holmes, A. “The ascent of mouse: advances in modeling human depression and anxiety” Nat Rev Drug Discov. 4, 775-790 (2005) (21)). The effects of the propeptide of the present invention were compared with those of the saline solution in which it is dissolved and with those of fluoxetine, one of the most-used antidepressants in clinical practice. The mouse strain used is C57Black/J strain. TREK-1^−/− mice were also measured in these various tests.
In the next two tests, the propeptide of the present invention was administered by the IV route at a rate of 100 μl at 1 μM per animal.
C. Conditioned Motility Suppression Test (CMST) (see Daugé, V., Sebret, A., Beslot, F., Matsui, T., & Rogues B. “Behavioral profile of CCK2 receptor-deficient mice” Neuropsychopharmacol; 25: 690-698 (2001) (23).
The experiment consists of conditioning the mouse on day 1, and measuring the effects of the substances on day 2.
On day 1, each mouse is placed in a box where the floor is a metal grille connected to an electric stimulator. […]

[1] = tested on: hippocampus progenitor cells; test: Neurogenesis (BrdU-positive cells) after 4 days of treatment; format: in vivo, mouse; details: fluoxetine 3 mg/kg
Excerpt: In contrast to many antidepressants now commonly used, the efficacy of action of the peptide of the invention is very rapid. […] 93: 3908-3913 (1996) (28) and with a considerable decrease in neurogenesis in the dentate gyrus (Gould, E., Tanapat, P., McEwen, B. S., Flugge, G., Fuchs, E. “Proliferation of granule cell precursors in the dentate gyrus of adult monkeys is diminished by stress” Proc Natl Acad Sci USA, 95: 3168-3171 (1998)) (29).
The experimental protocol is that described in the material and methods (Supplement) of the work of Santarelli et al., “Requirement of hippocampal neurogenesis for the behavioral effects of antidepressants” Science, 301: 805-809 (2003) (24) apart from the duration of treatment, which is four days.
The increase was evaluated using the one-factor ANOVA test followed by the post-hoc test.

TREK-1 channel = target: T1, TREK-1 channel (Homo sapiens, UniProt O95069); test: Whole-cell patch clamp of TREK-1 channel activity in transfected COS-7 cells; format: cell-based; details: activation by 10 μM arachidonic acid alone (baseline 31 pA/pF)
T1 construct: expressed in transfected cells; host or cells: COS-7 cells (ATCC CRL-1651), DEAE-dextran transfection
T1 sequence (O95069 1-426): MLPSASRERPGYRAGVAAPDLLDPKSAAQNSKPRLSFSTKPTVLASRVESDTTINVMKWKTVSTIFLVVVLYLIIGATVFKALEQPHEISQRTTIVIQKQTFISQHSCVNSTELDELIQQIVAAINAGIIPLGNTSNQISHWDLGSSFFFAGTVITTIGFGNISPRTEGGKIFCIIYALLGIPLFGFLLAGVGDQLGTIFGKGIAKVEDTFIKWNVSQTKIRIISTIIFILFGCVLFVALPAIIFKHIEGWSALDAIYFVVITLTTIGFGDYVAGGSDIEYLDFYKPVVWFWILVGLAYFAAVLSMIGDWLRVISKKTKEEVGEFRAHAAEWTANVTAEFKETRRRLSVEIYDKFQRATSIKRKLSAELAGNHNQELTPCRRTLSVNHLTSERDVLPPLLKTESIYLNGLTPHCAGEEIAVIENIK
Protocol: All the experiments for measuring the effect of the propeptide were conducted on COS-7 cells (cell line derived from kidney fibroblasts of African green monkey Cercopithecus aethiops). These cells are sown at a density of 20 000 cells/dish with diameter of 35 mm, 24 hours before being transfected by the DEAE-dextran method with 1 μg of pIRES-EGFP-TREK-1 plasmid. Measurements of current were taken 48 to 72 hours after transfection.
Culture of the COS-7 cells. The COS-7 cells (ATCC reference: CRL-1651) are cultivated in DMEM medium (Gibco)/10% fetal calf serum (FCS, ICN), at 37° C. in the presence of 5% CO2.
Transfection using DEAE dextran. On day 1, the COS-7 cells are sown at 20 000 cells per 35-mm diameter dish containing 2 ml of culture medium. On day 2, the medium is removed and the cells are covered with 200 μl of PBS (Gibco) containing 1 μg of pIRES-EGFP-TREK-1 plasmid and 100 μg of DEAE-dextran (Sigma) then placed at 37° C./5% CO2. After incubation for 30 minutes, 2 ml of medium DMEM/10% NuSerum/80 μM chloroquin is added. After 3 hours, the medium is replaced with 2 ml of DMEM/10% FCS and the cells are incubated for 48 to 72 hours before being measured by electrophysiological methods.
Electrophysiological measurements: all the measurements are taken at room temperature, i.e. at 21-22° C. The cells that were transfected by the plasmid are detected from the fluorescence emitted by the EGFP after excitation at 480 nm.
The whole-cell patch clamp technique was used for measuring the activity of the TREK-1 channels. The equipment used is the RK 400 patch-clamp amplifier (Axon Instruments, U.S.A.). The patch pipettes with resistance of 1.3 to 8 MΩ are prepared from capillaries of borosilicate glass and are filled with a solution of 155 mM KCl, 3 mM MgCl2, 5 mM EGTA, 10 mM HEPES/KOH pH 7.2.
The cell culture medium is replaced with a solution of 150 mM NaCl, 5 mM KCl, 3 mM MgCl2, 1 mM CaCl2, 10 HEPES/NaOH pH 7.4 containing 10 mM tetraethyl ammonium chloride, 3 mM of 4-aminopyridin. The cells are perfused continuously with this solution. The rest potential of the membrane of the measured cell is fixed at −80 mV.
The variations in voltage are obtained either with a continuous ramp (from −100 to +50 mV) or by potential jumps of 10 mV (from −100 to +40 mV, 1.5 second per jump).
The data obtained were analyzed with the Pclamp software. The currents described in the appended FIG. 2B were obtained at 0 mV, the results expressed are the mean values±standard deviation. The IC50 value was obtained by plotting the experimental data with a sigmoidal function.
The activity of the channel is then measured by the patch-clamp technique in whole-cell configuration as described above.

Row | SMILES | motility relative to untreated shocked mice (mouse (C57Black/J)) | neurogenesis relative to physiological saline [1] | current density at 0 mV (TREK-1 channel)
1 | CNCCC(Oc1ccc(C(F)(F)F)cc1)c1ccccc1 (stereo not drawn) [fluoxetine, reference compound] | 5 times greater | identical to that induced by the injection of physiological saline solution | –
2 | CCCCC/C=C\C/C=C\C/C=C\C/C=C\CCCC(=O)O [arachidonic acid, reference compound] | – | – | 130 pA/pF
